Experimental data published in patent publication US20100210554A1, “THERAPEUTIC USES OF GASTRIN- 1 AND G- PEN-GRGDSPCA” (priority 2007, published 2010).

Columns and labels:
[1] = test system: hepatitis B virus (HBV) ayw strain; assay: HBV experimental assay system (HepG2-2.2.15, TaqMan PCR of secreted HBV DNA); assay type: cell-based; conditions: 10 micrograms per ml, six days
[2] = test system: TNF-a spleen cells; assay: Th1/Th2 cytokine profiling assay: TNF-a; assay type: cell-based, Balb/c mice; conditions: 10 micrograms per ml; Ovalbumin restimulation; 72 hours
From the text: (§1) The Balb/c mice (originated in 1923, it is a popular strain and is used in many different research disciplines. Also classified as an inbred from the production of 20 or more successive brother-sister matings, the Balb/c mouse is albino and small in size) were immunized on Days 1, 15, and 29 with Ovalbumin (Ovalbumin is the main protein found in egg white, commonly used to stimulate an immunological reaction in test animals) in PBS (5 micrograms/injection). On day 50, spleens of the mice were harvested (3 weeks after last boost with Ovalbumin). […] Thereafter, additional Ovalbumin was added to the cells at 10 micrograms/ml for in vitro restimulation of the cells. 72 hours later, cell supernatants were harvested and assayed using the Becton Dickinson Mouse Th1/Th2 Cytokine CBA Kit. This kit can be used to measure Interleukin-2 (IL-2), Interleukin-4 (IL-4),
(§2) Interleukin-5 (IL-5), Interferon-γ (IFN-γ), and Tumor Necrosis Factor-α (TNF-α) protein levels in a single sample. The kit performance has been optimized for analysis of physiologically relevant concentrations (pg/ml levels) of specific cytokine proteins in tissue culture supernatants and serum samples.

[3] = test system: IFNγ spleen cells; assay: Th1/Th2 cytokine profiling assay: IFNγ; assay type: cell-based, Balb/c mice; conditions: 10 micrograms per ml; Ovalbumin restimulation; 72 hours
From the text: as §1, §2

[4] = test system: IL-2 spleen cells; assay: Th1/Th2 cytokine profiling assay: IL-2; assay type: cell-based, Balb/c mice; conditions: 10 micrograms per ml; Ovalbumin restimulation; 72 hours
From the text: as §1, §2

[5] = test system: IL-4 spleen cells; assay: Th1/Th2 cytokine profiling assay: IL-4; assay type: cell-based, Balb/c mice; conditions: 10 micrograms per ml; Ovalbumin restimulation; 72 hours
From the text: as §1, §2

[6] = test system: IL-5 spleen cells; assay: Th1/Th2 cytokine profiling assay: IL-5; assay type: cell-based, Balb/c mice; conditions: 10 micrograms per ml; Ovalbumin restimulation; 72 hours
From the text: as §1, §2

[7] = test system: Primary Human endothelial cells (HUVEC); assay: Endothelial cell migration assay; conditions: 10 micrograms per ml, 22 hours
Method: Primary Human endothelial cells (HUVEC) were seeded in insert chambers with 3 micrometer pore size of multi-transwell plate for 6 hours at 37° C. in Endothelial Cell Basal Medium (EBM) supplemented with 0.1% bovine serum albumin. Thereafter, designated concentration of testing peptides—10 micrograms per ml—was added in duplicate wells. The endothelia were allowed to migrate for 22 hours at 37° C., then, migrated cells were fixed and stained with Hoechst 33342 dye. Images of 3 fields per insert were taken and the number of migrated cells per field were quantified using the ImageProPlus software. Data were analyzed for the average number of the migrated cells and standard deviation of six data points for each treatment condition. […] Statistic p values were computed using the Student's t-test.

[8] = test system: HUVEC; assay: Endothelial tube formation assay; conditions: 10 micrograms per ml, 20 hours, combination peptide 1:peptide 2 0.95 mole:1.05 mole
Method: The endothelial tube formation assay is based on the ability of endothelial cells to form three-dimensional capillary-like tubular structures when cultured on a gel of basement membrane extract. […] Pre-labeled HUVEC with Calcein AM were seeded in a 96-well culture plate coated with extracellular metrix (Chemicon international Cat. ECM625) and treated with test peptides—10 micrograms per ml—in full growth medium. Positive control was vehicle only. The endothelial cells were allowed to form tubes foe 20 hours and were then examined under an inverted fluorescent microscope. Duplicate wells for each treatment were photographed and quantitatevily analyzed for an average tubule length using image analysis software ImageProPlus. Raw data were expressed as average tubule lengths in pixels ±standard deviation. Statistic p values were computed using the Student's t-test.

[9] = test system: HCMV strain AD169; assay: HCMV plaque formation assay in MRC-5 cells; conditions: for inhibition of HCMV plaque formation as compared to the virus control experiment: 10 micrograms per ml, 7-10 days
[10] = test system: HIV-1IIIB; assay: HIV-1 antiviral assay in CEM-SS cells (MTS readout)

Row | Molecule | inhibition of HBV replication as compared to the virus control infection [1] [%] | TNF-a spleen cells; TH1 response (% of control) [2] | IFNγ spleen cells; TH1 response (% of control) [3] | IL-2 spleen cells (% of control) [4] | IL-4 spleen cells; TH2 response (% of control) [5] | IL-5 spleen cells; TH2 response (% of control) [6] | inhibition of the migration of human endothelial cells [7] [%] | inhibition of the tube formation of endothelial cells [8] [%] | inhibition of HCMV plaque formation as compared to the virus control experiment [9] | antiviral activity of positive control compound (HCMV) ([9]; positive control) | antiviral activity of positive control compounds (HIV-1) [10]
1 | Pyr-Gly-Pro-Trp-Leu-Glu-Glu-Glu-Glu-Glu-Ala-Tyr-Gly-Trp-Met-Asp-Phe-NH2 [peptide 1] | 17.4 | 106.3 % of control | 52.4 % of control | 101.6 % of control | 61.5 % of control | 61.2 % of control | 30 | 35 | did not inhibit | – | –
2 | Nc1nc(O)c2ncn(COC(CO)CO)c2n1 [Ganciclovir, reference compound] | – | – | – | – | – | – | – | – | – | expected levels of antiviral activity | –
3 | CC(C)(C)NC(=O)[C@@H]1CN(Cc2cccnc2)CCN1C[C@@H](O)C[C@@H](Cc1ccccc1)C(=O)N[C@H]1c2ccccc2C[C@H]1O [indinavir] | – | – | – | – | – | – | – | – | – | – | expected levels of antiviral activity
4 | Cc1cn([C@H]2C[C@H](N=[N+]=[N-])[C@@H](CO)O2)c(=O)[nH]c1=O [AZT] | – | – | – | – | – | – | – | – | – | – | expected levels of antiviral activity
5 | Gly-Pen-Gly-Arg-Gly-Asp-Ser-Pro-Cys-Ala-OH [peptide 2] | 23.9 | 117.6 % of control | 77.3 % of control | 110.7 % of control | 117.2 % of control | 55.0 % of control | 51 | 22 | did not inhibit | – | –
